In patent publication US20140256771A1, “COMPOUNDS THAT MODULATE INTRACELLULAR CALCIUM” (CalciMedica, Inc., priority 2011, published 2014):

Legend:
Orai1/STIM1 = biological target: T1, Orai1/STIM1 (Homo sapiens, UniProt Q96D31); test: Fluorescence-based assay of store-operated calcium entry in Orai1/STIM1 stable cells; type: cell-based; settings: Table iv; HEK-293 cells stably expressing human STIM1 and Orai1; 50% inhibition of Peak-Basal fluo-4 signal; read-out: Orai1/STIM1 (IC50, μmol)
T1 construct: expressed in transfected cells; host or cells: HEK-293
T1 sequence (Q96D31 whole entry): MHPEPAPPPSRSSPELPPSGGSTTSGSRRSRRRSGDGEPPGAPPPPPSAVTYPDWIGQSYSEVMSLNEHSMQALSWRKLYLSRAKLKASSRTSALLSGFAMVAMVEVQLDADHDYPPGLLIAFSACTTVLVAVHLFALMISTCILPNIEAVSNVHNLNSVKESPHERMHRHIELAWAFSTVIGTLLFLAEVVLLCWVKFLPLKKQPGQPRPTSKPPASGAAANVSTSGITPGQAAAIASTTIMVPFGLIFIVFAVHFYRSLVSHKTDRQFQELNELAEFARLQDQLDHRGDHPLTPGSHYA
Protocol: A. Fluorescence-based Assay of Store-Operated Calcium Entry in Orai1/STIM1 Stable Cells.
Cells stably expressing recombinant human STIM1 and Orai1 are generated by transfecting a human Orai1 expression plasmid (pcDNA3.1-Orai1-cmyc) into HEK-293 cells stably overexpressing human STIM1 (Roos et al. 2005 JCB 169(3): 435-445). Colonies of cells stably expressing both STIM1 and Orai1 proteins are selected and then subcloned by limiting dilution. Cells were cultured at 37° C./6% CO2 in complete medium with 10% FBS and appropriate selection markers.
The day prior to performing the assay Orai1/STIM1 stable cells are plated in 50 μL of complete medium at 90-95% confluence in a 384 well plate. Cells are grown at 37° C./6% CO2 overnight. On the day of the assay, 1.5 μM fluo-4-AM (Invitrogen) in complete medium is added to the cells, which are then incubated for 1 hour at RT. Cells are washed once in Ca^2+-free HBSS (Hank's buffered saline solution) and 35 μl of Ca^2+-free HBSS is added to each well. Test compounds are added to wells in a 10 μL Ca^2+-free HBSS solution, prepared at 4.5× the desired final concentration, and incubated for 30 minutes at RT. The initial baseline fluorescence signal is then measured with a FLIPR^384 (Molecular Devices) plate reader. Calcium entry is initiated by adding 5 μl of 10× CaCl2 (10 mM) in HBSS, and changes in cellular fluorescence are measured with the FLIPR^384 plate reader. In each well, the magnitude of the fluorescence signal as a result of calcium entry into the cell is determined by calculating the difference between the peak fluorescence signal measured after calcium addition and the initial baseline fluorescence signal (designated Peak-Basal). IC50 values are typically calculated as the concentration that inhibited 50% of the Peak-Basal signal (Table A).

RBL-2H3 cells = test: Fluorescence-based assay of store-operated calcium entry in RBL-2H3 cells; type: cell-based, rat; settings: Rattus norvegicus, RBL-2H3; Table iv; thapsigargin store depletion; 50% inhibition of Upslope; read-out: RBL-2H3 (IC50, μmol)
Protocol: B. Fluorescence-based Assay of Store-Operated Calcium Entry in RBL-2H3Cells.
RBL-2H3 cells are obtained from ATCC and maintained in complete medium with 10% FBS at 37° C./6% CO2.
The day prior to performing the assay, RBL-2H3 cells are plated in 50 μL of complete medium in a 384 well plate. Cells are grown at 37° C./6% CO2 overnight and grow to 50-60% confluence by the next day. On the assay day, 1.5 μM Fluo-4-AM dye (Invitrogen) in complete medium is added and incubated for 1 hour at RT. Cells are washed twice in Ca^2+-free HBSS buffer and 35 μL Ca^2+-free HBSS buffer is added to each well. 10 μL of a test compound prepared in a Ca^2+-free HBSS solution at 4.5× of the desired concentration is added to a well and incubated for 5 minutes at RT. 10 μL of thapsigargin prepared in a Ca^2+-free HBSS solution at 5.5× of the desired concentration (5.5 uM) is added to each well and incubated for an additional 25 minutes. The initial baseline fluorescence signal is measured with a FLIPR^384 (Molecular Devices) plate reader. 5 μL of 12× calcium in HBSS (12 mM) is added and changes in cellular fluorescence are measured with the FLIPR^384 plate reader. In each well, the change in the fluorescent signal as a function of time due to calcium entry into the cell is determined by calculating the difference between the fluorescent signal measured 7 seconds after calcium addition and the initial baseline fluorescence signal at time zero (t=0). This parameter is designated Upslope. The IC50 value is calculated as the concentration at which 50% of the Upslope is inhibited.

STIM1 and Orai1 = STIM1 and Orai1 (Homo sapiens, UniProt Q96D31); settings: HEK293 cells co-expressing STIM1 and Orai1; cited from earlier work
STIM1 and Orai1, sequence (Q96D31 whole entry, species assumed): as the sequence (Q96D31 whole entry) above

Jurkat cells [1] = settings: cited from earlier work
Jurkat cells [2] = settings: cited from earlier work; remark: listed apart in the source

SMILES	IC50 (Orai1/STIM1) [nM]	IC50 (RBL-2H3 cells) [nM]	block of store dependent Ca2+ entry (STIM1 and Orai1)	inhibition of SOCE (Jurkat cells [1])	inhibition of proliferation (Jurkat cells [2])
O=C(Nc1ccc(-n2nc(C(F)(F)F)cc2C(F)(F)F)cc1)c1ccncc1F	600 to 1200	< 600	–	–	–
Cc1cc2c(cc1-c1ccc(NC(=O)c3c(F)cccc3F)cc1)OC(F)(F)O2	> 1200	< 600	–	–	–
Cc1cc2c(cc1-c1ccc(NC(=O)c3ccccc3F)cc1)OC(F)(F)O2	600 to 1200	< 600	–	–	–
Cc1cc2c(cc1-c1ccc(NC(=O)c3c(F)cncc3F)cc1)OC(F)(F)O2	> 1200	< 600	–	–	–
Cc1cc2c(cc1-c1ccc(NC(=O)c3ccncc3F)cc1)OC(F)(F)O2	600 to 1200	< 600	–	–	–
Cc1cc2c(cc1-c1ccc(NC(=O)c3cncc(F)c3)cc1)OC(F)(F)O2	600 to 1200	< 600	–	–	–
Cc1cc2c(cc1-c1ccc(NC(=O)c3snnc3C)cc1)OC(F)(F)O2	600 to 1200	< 600	–	–	–
Cc1cc2c(cc1-c1ccc(NC(=O)c3scnc3C)cc1)OC(F)(F)O2	600 to 1200	< 600	–	–	–
Cc1cc2c(cc1-c1ccc(NC(=O)c3c(F)cccc3F)cc1F)OC(F)(F)O2	> 1200	< 600	–	–	–
Cc1cc2c(cc1-c1ccc(NC(=O)c3ccccc3F)cc1F)OC(F)(F)O2	> 1200	< 600	–	–	–
Cc1cc2c(cc1-c1ccc(NC(=O)c3c(C)cccc3F)cc1F)OC(F)(F)O2	> 1200	< 600	–	–	–
Cc1cc2c(cc1-c1ccc(NC(=O)c3c(F)cncc3F)cc1F)OC(F)(F)O2	> 1200	< 600	–	–	–
Cn1nc(C(F)(F)F)cc1-c1ccc(NC(=O)c2c(Cl)cnn2C)cc1	< 600	< 600	–	–	–
Cc1cc(C(F)(F)F)nn1-c1ccc(NC(=O)c2ccccc2F)cc1	< 600	< 600	–	–	–
Cc1nnsc1C(=O)Nc1ccc(-n2nc(C(F)(F)F)cc2C)cc1	600 to 1200	< 600	–	–	–
NCCOB(c1ccccc1)c1ccccc1 [2-aminoethoxydiphenylborate]	–	–	completely blocked	–	–
Cc1nnsc1C(=O)Nc1ccc(-n2nc(C(F)(F)F)cc2C(F)(F)F)cc1 [BTP-2]	–	–	–	inhibits	inhibits

The next lines start with results.

IC50 (Orai1/STIM1) [nM]	IC50 (RBL-2H3 cells) [nM]	SMILES	block of store dependent Ca2+ entry (STIM1 and Orai1)	inhibition of SOCE (Jurkat cells [1])	inhibition of proliferation (Jurkat cells [2])
< 600	< 600	Cn1nc(C(F)(F)F)cc1-c1ccc(NC(=O)c2c(F)cccc2F)cc1F	–	–	–
< 600	< 600	Cn1nc(C(F)(F)F)cc1-c1ccc(NC(=O)c2ccccc2F)cc1F	–	–	–
< 600	< 600	Cc1cccc(F)c1C(=O)Nc1ccc(-c2cc(C(F)(F)F)nn2C)c(F)c1	–	–	–
600 to 1200	< 600	Cc1cnccc1C(=O)Nc1ccc(-c2cc(C(F)(F)F)nn2C)c(F)c1	–	–	–
< 600	< 600	Cc1nnsc1C(=O)Nc1ccc(-c2cc(C(F)(F)F)nn2C)c(F)c1	–	–	–
< 600	< 600	Cc1ncsc1C(=O)Nc1ccc(-c2cc(C(F)(F)F)nn2C)c(F)c1	–	–	–
< 600	< 600	Cn1nc(C(F)(F)F)cc1-c1ccc(NC(=O)c2c(F)cccc2F)c(F)c1	–	–	–
< 600	< 600	Cn1nc(C(F)(F)F)cc1-c1ccc(NC(=O)c2c(F)cncc2F)c(F)c1	–	–	–
> 1200	< 600	Cn1nc(C(F)(F)F)cc1-c1c(F)cc(NC(=O)c2c(F)cccc2F)cc1F	–	–	–
< 600	< 600	Cn1nc(C(F)(F)F)cc1-c1c(F)cc(NC(=O)c2ccccc2F)cc1F	–	–	–
< 600	< 600	Cn1nc(C(F)(F)F)cc1-c1c(F)cc(NC(=O)c2ccc(F)cc2F)cc1F	–	–	–
600 to 1200	< 600	Cn1nc(C(F)(F)F)cc1-c1c(F)cc(NC(=O)c2c(F)cncc2F)cc1F	–	–	–
< 600	< 600	Cn1nc(C(F)(F)F)cc1-c1ccc(NC(=O)c2c(F)cccc2F)cc1	–	–	–
< 600	< 600	Cn1nc(C(F)(F)F)cc1-c1ccc(NC(=O)c2ccccc2F)cc1	–	–	–
< 600	< 600	Cn1nc(C(F)(F)F)cc1-c1ccc(NC(=O)c2ccc(F)cc2F)cc1	–	–	–
< 600	< 600	Cn1nc(C(F)(F)F)cc1-c1ccc(NC(=O)c2c(F)cncc2F)cc1	–	–	–
> 1200	< 600	O=C(Nc1ccc(-n2nc(C(F)(F)F)cc2C(F)(F)F)cc1)c1c(F)cncc1F	–	–	–
600 to 1200	< 600	Cn1nc(C(F)(F)F)cc1-c1ccc(NC(=O)c2c(F)ccc(F)c2F)cc1F	–	–	–
< 600	< 600	Cc1ccccc1C(=O)Nc1ccc(-c2cc(C(F)(F)F)nn2C)c(F)c1	–	–	–
< 600	< 600	Cn1nc(C(F)(F)F)cc1-c1ccc(NC(=O)c2c(F)cc(F)cc2F)cc1	–	–	–
< 600	< 600	Cn1nc(C(F)(F)F)cc1-c1ccc(NC(=O)c2c(F)ccc(F)c2F)cc1	–	–	–
600 to 1200	< 600	Cc1cc(C(F)(F)F)nn1-c1ccc(NC(=O)c2c(F)cccc2F)cc1	–	–	–
< 600	< 600	Cc1cc(C(F)(F)F)nn1-c1ccc(NC(=O)c2ccc(F)cc2F)cc1	–	–	–
> 1200	< 600	Cc1cc(C(F)(F)F)nn1-c1ccc(NC(=O)c2c(F)cncc2F)cc1	–	–	–
> 1200	< 600	Cc1cc(C(F)(F)F)nn1-c1ccc(NC(=O)c2c(F)ccc(F)c2F)cc1	–	–	–
